Data: patent US9676720B2, “Substituted biaryl compound” (UBE INDUSTRIES, LTD., priority 2013, dated 2017)

These compounds were tested on mouse pulmonary fibrosis models (bleomycin) (assay: Test for inhibition of pulmonary fibrosis in mouse (bleomycin model, lung hydroxyproline)). Conditions: dose of 0.3 mg/kg, intratracheal administration twice per day for 28 days.
Type: in vivo, ICR mice
Method: Test for inhibition effect of pulmonary fibrosis using mouse was performed by partially modifying the method of Oku et al. (European Journal of Pharmacology, 590, 400 (2008)). […] These models were used as a bleomycin control group and a test compound administration group. Similarly, a normal group was subjected to administration of saline for 5 days. For the test, each group used 7 or more mice. The test compound solution for the administration was prepared by dissolving the test substance to the equimolar amount of 0.1 mol/L aqueous sodium hydroxide solution, and then neutralizing by adding a phosphate buffer solution (PBS) which was a medium. The test compound was administered via intratracheal administration twice per day from the start date of the test, for 28 days. For the normal group and bleomycin control group, the medium was administered similarly via intratracheal administration. For the intratracheal administration, the MicroSprayerTM (IA-1C-M, manufactured by PennCentury) was used. On the day following the completion of 28-day administration, the mice were left bleeding to die while subjecting the mice for inhalation anesthesia, to collect the lungs. […] The amount of hydroxyproline (HYP) in the lung hydrolysis solution, which is an indicator of collagen accumulation, was measured by the method of Woessner et al. (Archives of Biochemistry and Biophysics, 93, 440 (1961)). […] After cooling, 200 μL of the colored solution was placed on a microplate, and the absorbance (measurement wavelength: 570 nm, reference wavelength: 620 nm) was measured using a plate reader (SPECTRA FLOUR, manufactured by Tecan). A HYP solution having a specified concentration was reacted in the same manner to create a calibration curve, and the HYP concentration of each sample was calculated. From the calculated HYP concentration, the amount of HYP in the lung per 100 g of body weight was calculated. The inhibiting rate of HYP formation in the lung upon administration of the test compound was calculated using the formula described below. […]

Structure (SMILES)	Inhibiting rate of HYP formation in the lung
CC#Cc1cccc(-c2ccc(CN(Cc3cccc(NCC(=O)O)n3)S(=O)(=O)c3ccccn3)cc2)c1 [Example 4, (6-{[3′-(1-Propynyl)biphenyl-4-ylmethyl](pyridin-2-ylsulfonyl)aminomethyl}-pyridin-2-ylamino)acetic acid]	≥ 70%
CCOc1cccc(-c2ccc(CN(Cc3cccc(NCC(=O)O)n3)S(=O)(=O)c3ccccc3)cc2)c1 [Example 10, {6-[(Benzenesulfonyl)(3′-ethoxybiphenyl-4-ylmethyl)aminomethyl]pyridin-2-ylamino}acetic acid]	≥ 70%
CC#Cc1cccc(-c2ccc(CN(Cc3cccc(NCC(=O)O)n3)S(=O)(=O)c3ccccc3)cc2)c1 [Example 16, (6-{(Benzenesulfonyl)[3′-(1-propynyl)biphenyl-4-ylmethyl]aminomethyl}-pyridin-2-ylamino)acetic acid]	≥ 70%

These compounds were tested against human EP2 receptor (Homo sapiens (Human), UniProt P43116) (assay: Measurement of EP2 receptor binding action). Conditions: membrane fraction of HEK293 cells expressing human EP2 receptor; [3H]prostaglandin E2 10 nM.
human EP2 receptor, sequence (P43116 whole entry): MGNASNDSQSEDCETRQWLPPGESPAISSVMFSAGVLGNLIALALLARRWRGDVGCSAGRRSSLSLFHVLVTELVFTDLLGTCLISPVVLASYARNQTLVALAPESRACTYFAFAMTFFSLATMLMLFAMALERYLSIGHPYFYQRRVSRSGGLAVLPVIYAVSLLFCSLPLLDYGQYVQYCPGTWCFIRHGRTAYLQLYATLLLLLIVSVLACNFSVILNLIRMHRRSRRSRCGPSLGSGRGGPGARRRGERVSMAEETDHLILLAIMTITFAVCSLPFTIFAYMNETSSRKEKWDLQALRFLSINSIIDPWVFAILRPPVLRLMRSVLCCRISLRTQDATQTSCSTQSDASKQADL
Method: The membrane fraction was recovered on glass fiber filter paper (GF/B, manufactured by Whatman) using a cell harvester (M30R, manufactured by Brandel), and after washing with a buffer solution (10 mM MES-KOH (pH 6.0), 10 mM MgCl2), radioactivity was measured with a liquid scintillation analyzer (2000CA, manufactured by Packard). […] Ki=IC50/(1+([^3H]prostaglandin E2 concentration/Kd))
Note that the dissociation constant (Kd value) was calculated by Scatchard analysis.

Structure (SMILES)	Ki
CCC=Cc1cccc(-c2ccc(CN(Cc3cccc(NCC(=O)O)n3)S(=O)(=O)c3ccccn3)cc2)c1 [Comparative example 9, (6-{[3′-(1-Butenyl)biphenyl-4-ylmethyl](pyridin-2-ylsulfonyl)aminomethyl}-pyridin-2-ylamino)acetic acid]	1.5 nM
CCOc1cc(-c2ccc(CN(Cc3cccc(NCC(=O)O)n3)S(=O)(=O)c3ccccn3)cc2)ccn1 [Comparative example 15, (6-{[4-(2-Ethoxypyridin-4-yl)benzyl](pyridin-2-ylsulfonyl)aminomethyl}-pyridin-2-ylamino)acetic acid]	3.2 nM

The compounds below were run on Pulmonary fibroblasts derived from a human fetus (IMR90) (assay: Test for inhibition of pulmonary fibroblast proliferation (BrdU incorporation)). Conditions: Homo sapiens, IMR-90, read-out: IC50 value (nM) of inhibition effect of pulmonary fibroblast proliferation.
Type: cell-based
Method: Measurement of inhibition effect of pulmonary fibroblast proliferation was performed by modifying the method of Huang et al. (American Journal of Respiratory Cell and Molecular Biology, 39, 482 (2008)). Pulmonary fibroblasts derived from a human fetus (IMR90, purchased from American Type Culture Collection) were cultured in DMEM medium containing 10% FBS and seeded at 1×10^4 cells/well of a 96-well plate. After culturing for approximately 8 hours in a carbon dioxide incubator, the medium was replaced with FBS-free DMEM medium and the culturing was performed for one night. On the following day, the medium was replaced with a new FBS-free DMEM medium, and then a test compound dissolved in dimethyl sulfoxide (final concentration: 0.1%) and FGF (final concentration: 10 ng/mL, manufactured by Wako Pure Chemical Industries, Ltd.) were added thereto and allowed to stand undisturbed in a carbon dioxide incubator. After 22 hours, a BrdU labeling solution (manufactured by Roche) was added and culturing was performed for another 2 hours. After the completion of the culturing, amount of BrdU incorporation was measured using Cell Proliferation ELISA BrdU (colorimetric) (manufactured by Roche). The concentration of the test compound required to inhibit BrdU incorporation to 50% (IC50 value) was calculated by non-linear regression of the test compound concentration and the amount of BrdU incorporation using EXSAS (Ver. 8.0.0, manufactured by Arm Systex).

Structure (SMILES)	IC50
O=C(O)CNc1cccc(CN(Cc2ccc(-c3ccccc3)cc2)S(=O)(=O)c2ccccn2)n1 [Comparative example 1]	> 1 nM
O=C(O)CNc1cccc(CN(Cc2ccc(-c3ccccc3)cc2)S(=O)(=O)c2cccnc2)n1 [Comparative example 2, {6-[(Biphenyl-4-ylmethyl)(pyridin-3-ylsulfonyl)aminomethyl]pyridin-2-ylamino}acetic acid]	0.97 nM
O=C(O)CNc1cccc(CN(Cc2ccc(-c3ccc(F)cc3)cc2)S(=O)(=O)c2cccnc2)n1 [Comparative example 3, {6-[(4′-Fluorobiphenyl-4-ylmethyl)(pyridin-3-ylsulfonyl)aminomethyl]-pyridin-2-ylamino}acetic acid]	> 1 nM
O=C(O)CNc1cccc(CN(Cc2ccc(-c3ccc(Cl)cc3)cc2)S(=O)(=O)c2cccnc2)n1 [Comparative example 4, {6-[(4′-Chlorobiphenyl-4-ylmethyl)(pyridin-3-ylsulfonyl)aminomethyl]-pyridin-2-ylamino}acetic acid]	> 1 nM
CC#Cc1ccccc1-c1ccc(CN(Cc2cccc(NCC(=O)O)n2)S(=O)(=O)c2ccccn2)cc1 [Comparative example 16]	0.5 nM
CC#Cc1ccc(-c2ccc(CN(Cc3cccc(NCC(=O)O)n3)S(=O)(=O)c3ccccn3)cc2)cc1 [Comparative example 17]	> 1 nM
CC#Cc1cccc(-c2ccc(CN(Cc3cccc(NCC(=O)O)n3)S(=O)(=O)c3ccccn3)cc2)c1 [Example 4, (6-{[3′-(1-Propynyl)biphenyl-4-ylmethyl](pyridin-2-ylsulfonyl)aminomethyl}-pyridin-2-ylamino)acetic acid]	0.016 nM
CC#Cc1cccc(-c2ccc(CN(Cc3cccc(NCC(=O)O)n3)S(=O)(=O)c3cccnc3)cc2)c1 [Example 6, (6-{[3′-(1-Propynyl)biphenyl-4-ylmethyl](pyridin-3-ylsulfonyl)aminomethyl}-pyridin-2-ylamino)acetic acid]	0.045 nM
CCOc1cccc(-c2ccc(CN(Cc3cccc(NCC(=O)O)n3)S(=O)(=O)c3cccnc3)cc2)c1 [Example 9, {6-[(3′-Ethoxybiphenyl-4-ylmethyl)(pyridin-3-ylsulfonyl)aminomethyl]-pyridin-2-ylamino}acetic acid]	0.051 nM
CCOc1cccc(-c2ccc(CN(Cc3cccc(NCC(=O)O)n3)S(=O)(=O)c3ccccc3)cc2)c1 [Example 10, {6-[(Benzenesulfonyl)(3′-ethoxybiphenyl-4-ylmethyl)aminomethyl]pyridin-2-ylamino}acetic acid]	0.035 nM
CC#Cc1cccc(-c2ccc(CN(Cc3cccc(NCC(=O)O)n3)S(=O)(=O)c3cccs3)cc2)c1 [Example 14, (6-{[3′-(1-Propynyl)biphenyl-4-ylmethyl](thiophen-2-ylsulfonyl)-aminomethyl}pyridin-2-ylamino)acetic acid]	0.011 nM
CC#Cc1cccc(-c2ccc(CN(Cc3cccc(NCC(=O)O)n3)S(=O)(=O)c3ccccc3)cc2)c1 [Example 16, (6-{(Benzenesulfonyl)[3′-(1-propynyl)biphenyl-4-ylmethyl]aminomethyl}-pyridin-2-ylamino)acetic acid]	0.0088 nM
CC#Cc1cccc(-c2ccc(CN(Cc3cccc(NCC(=O)O)n3)S(=O)(=O)c3cccc(F)c3)cc2)c1 [Example 19, (6-{(3-Fluorobenzenesulfonyl)[3′-(1-propynyl)biphenyl-4-ylmethyl]-aminomethyl}pyridin-2-ylamino)acetic acid]	0.026 nM

Same assay, conditions: Homo sapiens, IMR-90; IMR90; FGF 10 ng/mL; BrdU incorporation; read-out: IC50 value (nM) of inhibition effect of pulmonary fibroblast proliferation

Structure (SMILES)	IC50
Cc1cnc(-c2ccc(CN(Cc3cccc(NCC(=O)O)n3)S(=O)(=O)c3ccccn3)cc2)s1 [Comparative example 5]	> 1 nM
Cc1cccc(-c2ccc(CN(Cc3cccc(NCC(=O)O)n3)S(=O)(=O)c3ccccn3)cc2)c1 [Comparative example 6]	0.58 nM
CCc1cccc(-c2ccc(CN(Cc3cccc(NCC(=O)O)n3)S(=O)(=O)c3ccccn3)cc2)c1 [Comparative example 7]	0.88 nM
CCCc1cccc(-c2ccc(CN(Cc3cccc(NCC(=O)O)n3)S(=O)(=O)c3ccccn3)cc2)c1 [Comparative example 8]	0.34 nM
CCC=Cc1cccc(-c2ccc(CN(Cc3cccc(NCC(=O)O)n3)S(=O)(=O)c3ccccn3)cc2)c1 [Comparative example 9, (6-{[3′-(1-Butenyl)biphenyl-4-ylmethyl](pyridin-2-ylsulfonyl)aminomethyl}-pyridin-2-ylamino)acetic acid]	0.75 nM
C=CCc1cccc(-c2ccc(CN(Cc3cccc(NCC(=O)O)n3)S(=O)(=O)c3ccccn3)cc2)c1 [Comparative example 10]	0.56 nM
COc1cccc(-c2ccc(CN(Cc3cccc(NCC(=O)O)n3)S(=O)(=O)c3ccccn3)cc2)c1 [Comparative example 11]	0.2 nM
CCOc1ccccc1-c1ccc(CN(Cc2cccc(NCC(=O)O)n2)S(=O)(=O)c2ccccn2)cc1 [Comparative example 13]	> 1 nM
CCOc1ccc(-c2ccc(CN(Cc3cccc(NCC(=O)O)n3)S(=O)(=O)c3ccccn3)cc2)cc1 [Comparative example 14]	> 1 nM
CCOc1cc(-c2ccc(CN(Cc3cccc(NCC(=O)O)n3)S(=O)(=O)c3ccccn3)cc2)ccn1 [Comparative example 15, (6-{[4-(2-Ethoxypyridin-4-yl)benzyl](pyridin-2-ylsulfonyl)aminomethyl}-pyridin-2-ylamino)acetic acid]	> 1 nM
CC=Cc1cccc(-c2ccc(CN(Cc3cccc(NCC(=O)O)n3)S(=O)(=O)c3ccccn3)cc2)c1 [Example 2]	0.035 nM
CCOc1cccc(-c2ccc(CN(Cc3cccc(NCC(=O)O)n3)S(=O)(=O)c3ccccn3)cc2)c1 [Example 7, {6-[(3′-Ethoxybiphenyl-4-ylmethyl)(pyridin-2-ylsulfonyl)aminomethyl]-pyridin-2-ylamino}acetic acid]	0.028 nM
CCOc1cccc(-c2ccc(CN(Cc3cccc(NCC(=O)O)n3)S(=O)(=O)c3cccs3)cc2)c1 [Example 11, {6-[(3′-Ethoxybiphenyl-4-ylmethyl)(thiophen-2-ylsulfonyl)aminomethyl]-pyridin-2-ylamino}acetic acid]	0.049 nM
CCOc1cccc(-c2ccc(CN(Cc3cccc(NCC(=O)O)n3)S(=O)(=O)c3ccccn3)cc2)n1 [Example 12, (6-{[4-(6-Ethoxypyridin-2-yl)benzyl](pyridin-2-ylsulfonyl)aminomethyl}-pyridin-2-ylamino)acetic acid]	0.037 nM
